Broadly, the EC50 is the concentration at which the effect is half-maximal.

In this assay the target is T1, F508delCFTR (Homo sapiens, UniProt P13569, DEL508-508).
T1 construct: expressed in transfected cells; host or cells: CFBE41o- human lung-derived epithelial cells (CFBE4lo-F508delCFTR-HRP), doxycycline-inducible
Kind of assay: Cell Surface Expression-Horse Radish Peroxidase (CSE-HRP) Assay.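 On Maximum % activity (with co-corrector): co-corrector and positive control are both the same reference corrector at 2 µM.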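 On Maximum % activity (without co-corrector): percent of the 2 µM on-plate positive control corrector response above DMSO.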 The assay is classed as cell-based. To be noted: CSE-HRP; for Maximum % activity (with co-corrector): with co-corrector (2 μM); for Maximum % activity (with co-corrector) / Emax: maximum at any tested concentration, normalized to on-plate positive control; for Emax: without co-corrector, read-out: Maximum % activity (without co-corrector).

Where [1] appears, read: test compound without co-corrector, read-out: EC50 (without co-corrector).
Where [2] appears, read: with co-corrector (2 μM of 3-[(2R,4R)-4-({[1-(2,2-difluoro-1,3-benzodioxol-5-yl)cyclopropyl]carbonyl}amino)-7-methoxy-3,4-dihydro-2H-chromen-2-yl]benzoic acid), read-out: EC50 (with co-corrector).

Where two headings read alike, the source gives them in different places.

T1 sequence (P13569 with tags, fused parts or gaps DEL508-508): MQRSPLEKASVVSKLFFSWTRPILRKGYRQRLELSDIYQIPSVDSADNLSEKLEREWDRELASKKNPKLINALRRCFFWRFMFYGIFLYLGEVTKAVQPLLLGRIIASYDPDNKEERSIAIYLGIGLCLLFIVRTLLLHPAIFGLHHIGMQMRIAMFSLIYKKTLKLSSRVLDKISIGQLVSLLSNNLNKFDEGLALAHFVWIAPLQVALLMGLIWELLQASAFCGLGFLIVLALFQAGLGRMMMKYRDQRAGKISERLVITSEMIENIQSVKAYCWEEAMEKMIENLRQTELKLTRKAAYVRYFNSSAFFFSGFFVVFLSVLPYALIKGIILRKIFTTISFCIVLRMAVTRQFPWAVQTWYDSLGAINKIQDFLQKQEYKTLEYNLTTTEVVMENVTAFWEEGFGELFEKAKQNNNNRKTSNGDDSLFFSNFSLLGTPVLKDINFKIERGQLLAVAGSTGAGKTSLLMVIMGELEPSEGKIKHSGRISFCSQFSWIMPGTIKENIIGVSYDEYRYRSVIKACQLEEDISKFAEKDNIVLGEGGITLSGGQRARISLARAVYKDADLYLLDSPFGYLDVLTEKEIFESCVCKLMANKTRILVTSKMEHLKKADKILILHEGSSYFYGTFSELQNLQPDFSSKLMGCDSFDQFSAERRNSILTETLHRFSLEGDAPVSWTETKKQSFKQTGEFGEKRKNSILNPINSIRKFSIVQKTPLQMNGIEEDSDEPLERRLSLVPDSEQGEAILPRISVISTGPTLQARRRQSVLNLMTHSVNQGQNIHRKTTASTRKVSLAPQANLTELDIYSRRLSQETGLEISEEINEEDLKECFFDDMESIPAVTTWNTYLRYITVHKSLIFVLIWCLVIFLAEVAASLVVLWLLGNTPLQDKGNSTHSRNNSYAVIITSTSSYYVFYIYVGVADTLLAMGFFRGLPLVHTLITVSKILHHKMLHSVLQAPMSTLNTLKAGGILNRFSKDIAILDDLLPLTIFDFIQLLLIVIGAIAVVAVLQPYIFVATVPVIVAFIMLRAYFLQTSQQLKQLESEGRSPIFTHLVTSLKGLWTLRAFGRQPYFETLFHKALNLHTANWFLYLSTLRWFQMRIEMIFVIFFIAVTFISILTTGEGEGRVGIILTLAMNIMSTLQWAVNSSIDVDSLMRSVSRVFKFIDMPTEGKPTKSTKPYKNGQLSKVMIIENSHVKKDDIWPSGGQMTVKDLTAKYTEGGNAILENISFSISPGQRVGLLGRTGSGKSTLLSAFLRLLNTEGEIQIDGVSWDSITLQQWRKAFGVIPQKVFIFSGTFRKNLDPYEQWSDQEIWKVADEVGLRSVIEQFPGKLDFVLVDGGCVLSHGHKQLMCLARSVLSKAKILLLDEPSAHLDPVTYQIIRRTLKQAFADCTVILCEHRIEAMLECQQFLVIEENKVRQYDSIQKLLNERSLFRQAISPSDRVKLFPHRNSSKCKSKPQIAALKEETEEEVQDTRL

Regarding `COc1ccc(C(C)(C)C)cc1CN[C@H]1[C@H](C(C)(C)C)[C@@H](C(=O)O)N(C(=O)C2COc3ccccc3C2)[C@H]1c1ccccc1` (stereo partly drawn) [II-232], the “Maximum % activity (with co-corrector)” value is “+++ (≥350)” and the Emax was in the range of 100 to 200%. Further, the 50% effective concentration (EC50) under setting [1] lay within 1000 to 10000 nM. Also, the EC50 under setting [2] was below 1000 nM.
The matching figures for `COc1ccc(C(C)(C)C)cc1CN[C@H]1[C@H](C(C)(C)C)[C@@H](C(=O)O)N(C(=O)Cc2cccc(F)c2F)[C@H]1c1ccccc1` [II-233]: “+++ (≥350)”, above 200%, 1000 to 10000 nM and below 1000 nM.
For `COc1ccc(C(C)(C)C)cc1CN[C@H]1[C@H](C(C)(C)C)[C@@H](C(=O)O)N(C(=O)CC2=CCCC2)[C@H]1c1ccccc1` [II-234], in that order: “+++ (≥350)”, above 200%, 1000 to 10000 nM and 1000 to 10000 nM.
The matching figures for `COc1ccc(C(C)(C)C)cc1CN[C@H]1[C@H](C(C)(C)C)[C@@H](C(=O)O)N(C(=O)CC2CCCO2)[C@H]1c1ccccc1` (stereo partly drawn) [II-235]: “+++ (≥350)”, above 200%, 1000 to 10000 nM and 1000 to 10000 nM.
Take `COc1ccc(C(C)(C)C)cc1CN[C@H]1[C@H](C(C)(C)C)[C@@H](C(=O)O)N(C(=O)Cc2ncc(Cl)cc2F)[C@H]1c1ccccc1` [II-236]: the “Maximum % activity (with co-corrector)” value is “+++ (≥350)” and the Emax was above 200%. Moreover, the EC50 under setting [1] lay in the range of 1000 to 10000 nM. Also, the concentration giving a half-maximal response (EC50) under setting [2] is below 1000 nM.
For `COc1ccc(C(C)(C)C)cc1CN[C@H]1[C@H](C(C)(C)C)[C@@H](C(=O)O)N(C(=O)C2CC(=O)N(C(C)C)C2)[C@H]1c1ccccc1` (stereo partly drawn) [II-238], in that order: “+++ (≥350)”, 100 to 200%, 1000 to 10000 nM and 1000 to 10000 nM.
The matching figures for `COc1ccc(C(C)(C)C)cc1CN[C@H]1[C@H](C(C)(C)C)[C@@H](C(=O)O)N(C(=O)C2CC(=O)N(C3CC3)C2)[C@H]1c1ccccc1` (stereo partly drawn) [II-239]: “+++ (≥350)”, 100 to 200%, 1000 to 10000 nM and 1000 to 10000 nM.
Turning to `COc1ccc(C(C)(C)C)cc1CN[C@H]1[C@H](C(C)(C)C)[C@@H](C(=O)O)N(C(=O)Cc2cccc(C#N)c2)[C@H]1c1ccccc1` [II-240], the “Maximum % activity (with co-corrector)” value is “+++ (≥350)” and the Emax is above 200%. The concentration for a half-maximal effect (EC50) under setting [1] is 1000 to 10000 nM. Also, the EC50 under setting [2] was below 1000 nM.
With `COc1cc(C(F)(F)F)ccc1CN[C@H]1[C@H](C(C)(C)C)[C@@H](C(=O)O)N(C(=O)C2OC[C@@H]3CCC[C@H]23)[C@H]1c1ccccc1` (stereo partly drawn) [II-241], the “Maximum % activity (with co-corrector)” value is “+++ (≥350)” and the Emax was 100 to 200%. Also, the EC50 under setting [1] was in the range of 1000 to 10000 nM. Moreover, under setting [2], the concentration giving a half-maximal response (EC50) was in the range of 1000 to 10000 nM.
As to `COCc1ccc(OC)c(CN[C@H]2[C@H](C(C)(C)C)[C@@H](C(=O)O)N(C(=O)C3CCCCC3)[C@H]2c2ccccc2)c1` [II-242], the “Maximum % activity (with co-corrector)” value is recorded as “+++ (≥350)” and the Emax is 100 to 200%. Also, the half-maximal effective concentration (EC50) under setting [1] fell in the range of 1000 to 10000 nM. Further, the EC50 under setting [2] fell in the range of 1000 to 10000 nM.
With `COc1nc2ccccc2cc1CN[C@H]1[C@H](C(C)(C)C)[C@@H](C(=O)O)N(C(=O)C2CCCCC2)[C@H]1c1ccccc1` [II-244], the “Maximum % activity (with co-corrector)” value is given as “+++ (≥350)” and the Emax was above 200%. Also, under setting [1], the EC50 was in the range of 1000 to 10000 nM. Further, the half-maximal effective concentration (EC50) under setting [2] was below 1000 nM.
For `COc1ccc(-c2ccccc2)cc1CN[C@H]1[C@H](C(C)(C)C)[C@@H](C(=O)O)N(C(=O)C2CCCCC2)[C@H]1c1ccccc1F` [II-245], in that order: “+++ (≥350)”, 100 to 200%, below 1000 nM and below 1000 nM.
For `COc1ncc(N2CCCC2)cc1CN[C@H]1[C@H](C(C)(C)C)[C@@H](C(=O)O)N(C(=O)C2CCCCC2)[C@H]1c1ccccc1` [II-246], the “Maximum % activity (with co-corrector)” value is “+++ (≥350)” and the Emax fell in the range of 100 to 200%. For the same compound, the EC50 under setting [1] is 1000 to 10000 nM. In addition, under setting [2], the concentration giving a half-maximal response (EC50) lay in the range of 1000 to 10000 nM.
Take `COc1ncc(Br)cc1CN[C@H]1[C@H](C(C)(C)OC)[C@@H](C(=O)O)N(C(=O)C2CCCCC2)[C@H]1c1ccccc1` [II-247]: the “Maximum % activity (with co-corrector)” value is “+++ (≥350)” and the Emax is 100 to 200%. In addition, the EC50 under setting [1] was in the range of 1000 to 10000 nM. Moreover, the EC50 under setting [2] was below 1000 nM.
The matching figures for `COc1ccc(-c2ccc(C)cc2)cc1CN[C@H]1[C@H](C(C)(C)C)[C@@H](C(=O)O)N(C(=O)C2CCCCC2)[C@H]1c1ccccc1` [II-249]: “+++ (≥350)”, above 200%, below 1000 nM and below 1000 nM.
For `COc1ccc(-c2cccnc2OC)cc1CN[C@H]1[C@H](C(C)(C)C)[C@@H](C(=O)O)N(C(=O)C2CCCCC2)[C@H]1c1ccccc1` [II-250], the “Maximum % activity (with co-corrector)” value is reported as “+++ (≥350)” and the Emax lay in the range of 100 to 200%. Also, under setting [1], the 50% effective concentration (EC50) lay in the range of 1000 to 10000 nM. The 50% effective concentration (EC50) under setting [2] fell in the range of 1000 to 10000 nM.
`COc1ncc(C2CC3CCC2C3)cc1CN[C@H]1[C@H](C(C)(C)OC)[C@@H](C(=O)O)N(C(=O)C2CCCCC2)[C@H]1c1ccccc1` (stereo partly drawn) [II-251]: the “Maximum % activity (with co-corrector)” value is “+++ (≥350)” and the Emax fell in the range of 100 to 200%. Further, the EC50 under setting [1] is below 1000 nM. The concentration for a half-maximal effect (EC50) under setting [2] was below 1000 nM.
Consider `COc1ncc(C2CCCCC2)cc1CN[C@H]1[C@H](C(C)(C)OC)[C@@H](C(=O)O)N(C(=O)C2CCCCC2)[C@H]1c1ccccc1` [II-252], for which the “Maximum % activity (with co-corrector)” value is given as “+++ (≥350)” and the Emax was above 200%. In addition, under setting [1], the half-maximal effective concentration (EC50) is below 1000 nM. Besides, under setting [2], the 50% effective concentration (EC50) is below 1000 nM.
Take `COc1ncc(CC2CCCCC2)cc1CN[C@H]1[C@H](C(C)(C)OC)[C@@H](C(=O)O)N(C(=O)C2CCCCC2)[C@H]1c1ccccc1` [II-253]: the “Maximum % activity (with co-corrector)” value was “+++ (≥350)” and the Emax fell in the range of 100 to 200%. In addition, the concentration for a half-maximal effect (EC50) under setting [1] is below 1000 nM. Under setting [2], the 50% effective concentration (EC50) is below 1000 nM.
In the case of `COc1ncc(C(C)C)cc1CN[C@H]1[C@H](C(C)(C)OC)[C@@H](C(=O)O)N(C(=O)C2CCCCC2)[C@H]1c1ccccc1` [II-254], the “Maximum % activity (with co-corrector)” value is “+++ (≥350)” and the Emax is above 200%. In addition, the EC50 under setting [1] was 1000 to 10000 nM. Further, the half-maximal effective concentration (EC50) under setting [2] is 1000 to 10000 nM.
With `COc1ccc(C2CCC2)cc1CN[C@H]1[C@H](C(C)(C)OC)[C@@H](C(=O)O)N(C(=O)C2CCCCC2)[C@H]1c1ccccc1` [II-255], the “Maximum % activity (with co-corrector)” value is on record as “+++ (≥350)” and the Emax is above 200%. The EC50 under setting [1] is below 1000 nM. Moreover, the EC50 under setting [2] was below 1000 nM.
Take `COc1ccc(C2CCCC2)cc1CN[C@H]1[C@H](C(C)(C)OC)[C@@H](C(=O)O)N(C(=O)C2CCCCC2)[C@H]1c1ccccc1` [II-256]: the “Maximum % activity (with co-corrector)” value was “+++ (≥350)” and the Emax was above 200%. The EC50 under setting [1] is below 1000 nM. Moreover, the EC50 under setting [2] is below 1000 nM.
Turning to `COc1ccc(C2CCCCC2)cc1CN[C@H]1[C@H](C(C)(C)OC)[C@@H](C(=O)O)N(C(=O)C2CCCCC2)[C@H]1c1ccccc1` [II-257], the “Maximum % activity (with co-corrector)” value was “+++ (≥350)” and the Emax is above 200%. The 50% effective concentration (EC50) under setting [1] was below 1000 nM. Besides, the concentration for a half-maximal effect (EC50) under setting [2] was below 1000 nM.
On to `COc1ccc(C(C)C)cc1CN[C@H]1[C@H](C(C)(C)OC)[C@@H](C(=O)O)N(C(=O)C2CCCCC2)[C@H]1c1ccccc1` [II-258], for which the “Maximum % activity (with co-corrector)” value is listed as “+++ (≥350)” and the Emax is above 200%. The EC50 under setting [1] was in the range of 1000 to 10000 nM. For the same compound, the concentration giving a half-maximal response (EC50) under setting [2] was below 1000 nM.
For `COc1ncc(C2CC2)cc1CN[C@H]1[C@H](C(C)(C)C)[C@@H](C(=O)O)N(C(=O)C2CCCCC2)[C@H]1c1ccccc1` [II-259], in that order: “+++ (≥350)”, 100 to 200%, 1000 to 10000 nM and 1000 to 10000 nM.
Turning to `COc1ccc(C(F)(F)F)cc1CN[C@H]1[C@H](C(C)(C)C)[C@@H](C(=O)O)N(C(=O)C2CCCCC2)[C@H]1c1ccccc1F` [II-260], the “Maximum % activity (with co-corrector)” value is recorded as “+++ (≥350)” and the Emax fell in the range of 100 to 200%. For the same compound, under setting [1], the EC50 was 1000 to 10000 nM. Further, under setting [2], the EC50 lay in the range of 1000 to 10000 nM.
In the case of `COc1cc(C(F)(F)F)ccc1CN[C@H]1[C@H](C(C)(C)C)[C@@H](C(=O)O)N(C(=O)C2CCCCC2)[C@H]1c1ccccc1F` [II-261], the “Maximum % activity (with co-corrector)” value is “+++ (≥350)” and the Emax is below 100%. Besides, the 50% effective concentration (EC50) under setting [1] was in the range of 1000 to 10000 nM. For the same compound, the EC50 under setting [2] lay within 1000 to 10000 nM.
Take `COc1ccc(Br)cc1CN[C@H]1[C@H](C(C)(C)C)[C@@H](C(=O)O)N(C(=O)C2CCCCC2)[C@H]1c1ccccc1F` [II-262]: the “Maximum % activity (with co-corrector)” value is recorded as “+++ (≥350)” and the Emax is 100 to 200%. Further, the EC50 under setting [1] is 1000 to 10000 nM. Also, the concentration for a half-maximal effect (EC50) under setting [2] lay in the range of 1000 to 10000 nM.
Turning to `COc1ncc(Br)cc1CN[C@H]1[C@H](C(C)(C)C)[C@@H](C(=O)O)N(C(=O)C2CCCCC2)[C@H]1c1ccccc1F` [II-263], the “Maximum % activity (with co-corrector)” value is recorded as “+++ (≥350)” and the Emax is below 100%. The EC50 under setting [1] lay in the range of 1000 to 10000 nM. The concentration giving a half-maximal response (EC50) under setting [2] lay in the range of 1000 to 10000 nM.
In the case of `COc1ccc(C(C)(C)C)cc1CN[C@H]1[C@H](C(C)(C)C)[C@@H](C(=O)O)N(C(=O)OCC(C)C)[C@H]1c1ccccc1` [II-264], the “Maximum % activity (with co-corrector)” value is on record as “+++ (≥350)” and the Emax was above 200%. Besides, the EC50 under setting [1] fell in the range of 1000 to 10000 nM. In addition, the EC50 under setting [2] is 1000 to 10000 nM.

The record behind these values is patent publication US20180099931A1 (AbbVie S.à.r.l., priority 2016, published 2018).
